System: Abutilon theophrasti
Experiment: Pre-emergence herbicidal activity, glasshouse pot test
Format: in vivo
Details: pre-emergence spray, rate 1000 g/ha, evaluated after 13 days, scale 0-5
Procedure, shortened: (§1)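 Seeds sown in standard soil were sprayed one day after sowing, before emergence, with compound formulated in acetone/water (50:50) plus 0.5% Tween 20. Plants were grown at 24/16 °C day/night, 14 h light, 65% humidity, watered twice daily, and damage was scored after 13 days (0 = none, 5 = total).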

SMILES | ABUTH damage score, application pre-emergence
CC1=C(Cl)C(=O)N(c2ccc(C(C)(C)C#N)cn2)C1O (stereo not drawn) [AF102] | 5
CC1=C(Cl)C(=O)N(c2cc(C(C)C)c(C(=O)NC(C)(C)C)cn2)C1O (stereo not drawn) [AF103] | 5
CC1=C(Cl)C(=O)N(c2cc(C)c(-c3ccsc3)cn2)C1O (stereo not drawn) [AF104] | 1
CC1=C(Cl)C(=O)N(c2cc(C(F)(F)F)c(-c3nn(C)c4ccccc34)cn2)C1O (stereo not drawn) [AF105] | 0
CC1=C(Br)C(=O)N(c2cc(C(F)(F)F)ccn2)C1O (stereo not drawn) [AG1] | 5
COC1=C(C)C(O)N(c2cc(C(F)(F)F)ccn2)C1=O (stereo not drawn) [AI1, 2-hydroxy-4-methoxy-3-methyl-1-[4-(trifluoromethyl)-2-pyridyl]-2H-pyrrol-5-one] | 5
COC1=C(C)C(O)N(c2cc(C(F)(F)F)c(Br)cn2)C1=O (stereo not drawn) [AI2] | 3

System: Alopecurus myosuroides
Experiment: as above
Format: in vivo
Details: pre-emergence spray, rate 1000 g/ha, evaluated after 13 days, scale 0-5
Procedure, shortened: as §1

SMILES | ALOMY damage score, application pre-emergence
CC1=C(Cl)C(=O)N(c2ccc(C(C)(C)C#N)cn2)C1O (stereo not drawn) [AF102] | 3
CC1=C(Cl)C(=O)N(c2cc(C(C)C)c(C(=O)NC(C)(C)C)cn2)C1O (stereo not drawn) [AF103] | 4
CC1=C(Cl)C(=O)N(c2cc(C)c(-c3ccsc3)cn2)C1O (stereo not drawn) [AF104] | 0
CC1=C(Cl)C(=O)N(c2cc(C(F)(F)F)c(-c3nn(C)c4ccccc34)cn2)C1O (stereo not drawn) [AF105] | 0
CC1=C(Br)C(=O)N(c2cc(C(F)(F)F)ccn2)C1O (stereo not drawn) [AG1] | 2
COC1=C(C)C(O)N(c2cc(C(F)(F)F)ccn2)C1=O (stereo not drawn) [AI1, 2-hydroxy-4-methoxy-3-methyl-1-[4-(trifluoromethyl)-2-pyridyl]-2H-pyrrol-5-one] | 4
COC1=C(C)C(O)N(c2cc(C(F)(F)F)c(Br)cn2)C1=O (stereo not drawn) [AI2] | 4

System: Amaranthus retroflexus
Experiment: as above
Format: in vivo
Details: pre-emergence spray, rate 1000 g/ha, evaluated after 13 days, scale 0-5
Procedure, shortened: as §1

SMILES | AMARE damage score, application pre-emergence
CC1=C(Cl)C(=O)N(c2ccc(C(C)(C)C#N)cn2)C1O (stereo not drawn) [AF102] | 5
CC1=C(Cl)C(=O)N(c2cc(C(C)C)c(C(=O)NC(C)(C)C)cn2)C1O (stereo not drawn) [AF103] | 5
CC1=C(Cl)C(=O)N(c2cc(C)c(-c3ccsc3)cn2)C1O (stereo not drawn) [AF104] | 5
CC1=C(Cl)C(=O)N(c2cc(C(F)(F)F)c(-c3nn(C)c4ccccc34)cn2)C1O (stereo not drawn) [AF105] | 0
CC1=C(Br)C(=O)N(c2cc(C(F)(F)F)ccn2)C1O (stereo not drawn) [AG1] | 5
COC1=C(C)C(O)N(c2cc(C(F)(F)F)ccn2)C1=O (stereo not drawn) [AI1, 2-hydroxy-4-methoxy-3-methyl-1-[4-(trifluoromethyl)-2-pyridyl]-2H-pyrrol-5-one] | 5
COC1=C(C)C(O)N(c2cc(C(F)(F)F)c(Br)cn2)C1=O (stereo not drawn) [AI2] | 5

System: Echinochloa crus-galli
Experiment: as above
Format: in vivo
Details: pre-emergence spray, rate 1000 g/ha, evaluated after 13 days, scale 0-5
Procedure, shortened: as §1

SMILES | ECHCG damage score, application pre-emergence
CC1=C(Cl)C(=O)N(c2ccc(C(C)(C)C#N)cn2)C1O (stereo not drawn) [AF102] | 5
CC1=C(Cl)C(=O)N(c2cc(C(C)C)c(C(=O)NC(C)(C)C)cn2)C1O (stereo not drawn) [AF103] | 4
CC1=C(Cl)C(=O)N(c2cc(C)c(-c3ccsc3)cn2)C1O (stereo not drawn) [AF104] | 1
CC1=C(Cl)C(=O)N(c2cc(C(F)(F)F)c(-c3nn(C)c4ccccc34)cn2)C1O (stereo not drawn) [AF105] | 0
CC1=C(Br)C(=O)N(c2cc(C(F)(F)F)ccn2)C1O (stereo not drawn) [AG1] | 2
COC1=C(C)C(O)N(c2cc(C(F)(F)F)ccn2)C1=O (stereo not drawn) [AI1, 2-hydroxy-4-methoxy-3-methyl-1-[4-(trifluoromethyl)-2-pyridyl]-2H-pyrrol-5-one] | 4
COC1=C(C)C(O)N(c2cc(C(F)(F)F)c(Br)cn2)C1=O (stereo not drawn) [AI2] | 4

System: Setaria faberi
Experiment: as above
Format: in vivo
Details: pre-emergence spray, rate 1000 g/ha, evaluated after 13 days, scale 0-5
Procedure, shortened: as §1

SMILES | SETFA damage score, application pre-emergence
CC1=C(Cl)C(=O)N(c2ccc(C(C)(C)C#N)cn2)C1O (stereo not drawn) [AF102] | 4
CC1=C(Cl)C(=O)N(c2cc(C(C)C)c(C(=O)NC(C)(C)C)cn2)C1O (stereo not drawn) [AF103] | 4
CC1=C(Cl)C(=O)N(c2cc(C)c(-c3ccsc3)cn2)C1O (stereo not drawn) [AF104] | 1
CC1=C(Cl)C(=O)N(c2cc(C(F)(F)F)c(-c3nn(C)c4ccccc34)cn2)C1O (stereo not drawn) [AF105] | 0
CC1=C(Br)C(=O)N(c2cc(C(F)(F)F)ccn2)C1O (stereo not drawn) [AG1] | 3
COC1=C(C)C(O)N(c2cc(C(F)(F)F)ccn2)C1=O (stereo not drawn) [AI1, 2-hydroxy-4-methoxy-3-methyl-1-[4-(trifluoromethyl)-2-pyridyl]-2H-pyrrol-5-one] | 5
COC1=C(C)C(O)N(c2cc(C(F)(F)F)c(Br)cn2)C1=O (stereo not drawn) [AI2] | 1

System: zea mays
Experiment: as above
Format: in vivo
Details: pre-emergence spray, rate 1000 g/ha, evaluated after 13 days, scale 0-5
Procedure, shortened: as §1

SMILES | ZEAMX damage score, application pre-emergence
CC1=C(Cl)C(=O)N(c2ccc(C(C)(C)C#N)cn2)C1O (stereo not drawn) [AF102] | 3
CC1=C(Cl)C(=O)N(c2cc(C(C)C)c(C(=O)NC(C)(C)C)cn2)C1O (stereo not drawn) [AF103] | 3
CC1=C(Cl)C(=O)N(c2cc(C)c(-c3ccsc3)cn2)C1O (stereo not drawn) [AF104] | 0
CC1=C(Cl)C(=O)N(c2cc(C(F)(F)F)c(-c3nn(C)c4ccccc34)cn2)C1O (stereo not drawn) [AF105] | 0
CC1=C(Br)C(=O)N(c2cc(C(F)(F)F)ccn2)C1O (stereo not drawn) [AG1] | 0
COC1=C(C)C(O)N(c2cc(C(F)(F)F)ccn2)C1=O (stereo not drawn) [AI1, 2-hydroxy-4-methoxy-3-methyl-1-[4-(trifluoromethyl)-2-pyridyl]-2H-pyrrol-5-one] | 3
COC1=C(C)C(O)N(c2cc(C(F)(F)F)c(Br)cn2)C1=O (stereo not drawn) [AI2] | 2

System: Abutilon theophrasti
Experiment: Post-emergence herbicidal activity, glasshouse pot test
Format: in vivo
Set-up: key: 0 = no damage to plant, 5 = total damage to plant
Details: Application post-emergence, rate 1000 g/ha, evaluated after 13 days
Procedure, shortened: (§2)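 Seeds sown in standard soil in pots, grown 8 days in glasshouse (24/16 °C day/night, 14 h light, 65% humidity), then sprayed with aqueous solution from active ingredient formulated in acetone/water (50:50) with 0.5% Tween 20. Plants regrown under same conditions, watered twice daily; damage scored after 13 days (0 none–5 total).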

SMILES | ABUTH herbicidal damage score
CC1=C(Cl)C(=O)N(c2ccc(C(C)(C)C#N)cn2)C1O (stereo not drawn) [AF102] | 5
CC1=C(Cl)C(=O)N(c2cc(C(C)C)c(C(=O)NC(C)(C)C)cn2)C1O (stereo not drawn) [AF103] | 5
CC1=C(Cl)C(=O)N(c2cc(C)c(-c3ccsc3)cn2)C1O (stereo not drawn) [AF104] | 4
CC1=C(Cl)C(=O)N(c2cc(C(F)(F)F)c(-c3nn(C)c4ccccc34)cn2)C1O (stereo not drawn) [AF105] | 5
CC1=C(Br)C(=O)N(c2cc(C(F)(F)F)ccn2)C1O (stereo not drawn) [AG1] | 5
COC1=C(C)C(O)N(c2cc(C(F)(F)F)ccn2)C1=O (stereo not drawn) [AI1, 2-hydroxy-4-methoxy-3-methyl-1-[4-(trifluoromethyl)-2-pyridyl]-2H-pyrrol-5-one] | 5
COC1=C(C)C(O)N(c2cc(C(F)(F)F)c(Br)cn2)C1=O (stereo not drawn) [AI2] | 5

System: Alopecurus myosuroides
Experiment: as above
Format: in vivo
Set-up: key: 0 = no damage to plant, 5 = total damage to plant
Details: Application post-emergence, rate 1000 g/ha, evaluated after 13 days
Procedure, shortened: as §2

SMILES | ALOMY herbicidal damage score
CC1=C(Cl)C(=O)N(c2ccc(C(C)(C)C#N)cn2)C1O (stereo not drawn) [AF102] | 5
CC1=C(Cl)C(=O)N(c2cc(C(C)C)c(C(=O)NC(C)(C)C)cn2)C1O (stereo not drawn) [AF103] | 4
CC1=C(Cl)C(=O)N(c2cc(C)c(-c3ccsc3)cn2)C1O (stereo not drawn) [AF104] | 2
CC1=C(Cl)C(=O)N(c2cc(C(F)(F)F)c(-c3nn(C)c4ccccc34)cn2)C1O (stereo not drawn) [AF105] | 3
CC1=C(Br)C(=O)N(c2cc(C(F)(F)F)ccn2)C1O (stereo not drawn) [AG1] | 4
COC1=C(C)C(O)N(c2cc(C(F)(F)F)ccn2)C1=O (stereo not drawn) [AI1, 2-hydroxy-4-methoxy-3-methyl-1-[4-(trifluoromethyl)-2-pyridyl]-2H-pyrrol-5-one] | 4
COC1=C(C)C(O)N(c2cc(C(F)(F)F)c(Br)cn2)C1=O (stereo not drawn) [AI2] | 5

System: Amaranthus retroflexus
Experiment: as above
Format: in vivo
Set-up: key: 0 = no damage to plant, 5 = total damage to plant
Details: Application post-emergence, rate 1000 g/ha, evaluated after 13 days
Procedure, shortened: as §2

SMILES | AMARE herbicidal damage score
CC1=C(Cl)C(=O)N(c2ccc(C(C)(C)C#N)cn2)C1O (stereo not drawn) [AF102] | 5
CC1=C(Cl)C(=O)N(c2cc(C(C)C)c(C(=O)NC(C)(C)C)cn2)C1O (stereo not drawn) [AF103] | 5
CC1=C(Cl)C(=O)N(c2cc(C)c(-c3ccsc3)cn2)C1O (stereo not drawn) [AF104] | 5
CC1=C(Cl)C(=O)N(c2cc(C(F)(F)F)c(-c3nn(C)c4ccccc34)cn2)C1O (stereo not drawn) [AF105] | 5
CC1=C(Br)C(=O)N(c2cc(C(F)(F)F)ccn2)C1O (stereo not drawn) [AG1] | 5
COC1=C(C)C(O)N(c2cc(C(F)(F)F)ccn2)C1=O (stereo not drawn) [AI1, 2-hydroxy-4-methoxy-3-methyl-1-[4-(trifluoromethyl)-2-pyridyl]-2H-pyrrol-5-one] | 5
COC1=C(C)C(O)N(c2cc(C(F)(F)F)c(Br)cn2)C1=O (stereo not drawn) [AI2] | 5

System: Echinochloa crus-galli
Experiment: as above
Format: in vivo
Set-up: key: 0 = no damage to plant, 5 = total damage to plant
Details: Application post-emergence, rate 1000 g/ha, evaluated after 13 days
Procedure, shortened: as §2

SMILES | ECHCG herbicidal damage score
CC1=C(Cl)C(=O)N(c2ccc(C(C)(C)C#N)cn2)C1O (stereo not drawn) [AF102] | 5
CC1=C(Cl)C(=O)N(c2cc(C(C)C)c(C(=O)NC(C)(C)C)cn2)C1O (stereo not drawn) [AF103] | 5
CC1=C(Cl)C(=O)N(c2cc(C)c(-c3ccsc3)cn2)C1O (stereo not drawn) [AF104] | 5
CC1=C(Cl)C(=O)N(c2cc(C(F)(F)F)c(-c3nn(C)c4ccccc34)cn2)C1O (stereo not drawn) [AF105] | 2
CC1=C(Br)C(=O)N(c2cc(C(F)(F)F)ccn2)C1O (stereo not drawn) [AG1] | 5
COC1=C(C)C(O)N(c2cc(C(F)(F)F)ccn2)C1=O (stereo not drawn) [AI1, 2-hydroxy-4-methoxy-3-methyl-1-[4-(trifluoromethyl)-2-pyridyl]-2H-pyrrol-5-one] | 5
COC1=C(C)C(O)N(c2cc(C(F)(F)F)c(Br)cn2)C1=O (stereo not drawn) [AI2] | 5

System: Setaria faberi
Experiment: as above
Format: in vivo
Set-up: key: 0 = no damage to plant, 5 = total damage to plant
Details: Application post-emergence, rate 1000 g/ha, evaluated after 13 days
Procedure, shortened: as §2

SMILES | SETFA herbicidal damage score
CC1=C(Cl)C(=O)N(c2ccc(C(C)(C)C#N)cn2)C1O (stereo not drawn) [AF102] | 5
CC1=C(Cl)C(=O)N(c2cc(C(C)C)c(C(=O)NC(C)(C)C)cn2)C1O (stereo not drawn) [AF103] | 5
CC1=C(Cl)C(=O)N(c2cc(C)c(-c3ccsc3)cn2)C1O (stereo not drawn) [AF104] | 5
CC1=C(Cl)C(=O)N(c2cc(C(F)(F)F)c(-c3nn(C)c4ccccc34)cn2)C1O (stereo not drawn) [AF105] | 4
CC1=C(Br)C(=O)N(c2cc(C(F)(F)F)ccn2)C1O (stereo not drawn) [AG1] | 5
COC1=C(C)C(O)N(c2cc(C(F)(F)F)ccn2)C1=O (stereo not drawn) [AI1, 2-hydroxy-4-methoxy-3-methyl-1-[4-(trifluoromethyl)-2-pyridyl]-2H-pyrrol-5-one] | 5
COC1=C(C)C(O)N(c2cc(C(F)(F)F)c(Br)cn2)C1=O (stereo not drawn) [AI2] | 5

System: zea mays
Experiment: as above
Format: in vivo
Set-up: key: 0 = no damage to plant, 5 = total damage to plant
Details: Application post-emergence, rate 1000 g/ha, evaluated after 13 days
Procedure, shortened: as §2

SMILES | ZEAMX herbicidal damage score
CC1=C(Cl)C(=O)N(c2ccc(C(C)(C)C#N)cn2)C1O (stereo not drawn) [AF102] | 5
CC1=C(Cl)C(=O)N(c2cc(C(C)C)c(C(=O)NC(C)(C)C)cn2)C1O (stereo not drawn) [AF103] | 3
CC1=C(Cl)C(=O)N(c2cc(C)c(-c3ccsc3)cn2)C1O (stereo not drawn) [AF104] | 0
CC1=C(Cl)C(=O)N(c2cc(C(F)(F)F)c(-c3nn(C)c4ccccc34)cn2)C1O (stereo not drawn) [AF105] | 0
CC1=C(Br)C(=O)N(c2cc(C(F)(F)F)ccn2)C1O (stereo not drawn) [AG1] | 2
COC1=C(C)C(O)N(c2cc(C(F)(F)F)ccn2)C1=O (stereo not drawn) [AI1, 2-hydroxy-4-methoxy-3-methyl-1-[4-(trifluoromethyl)-2-pyridyl]-2H-pyrrol-5-one] | 4
COC1=C(C)C(O)N(c2cc(C(F)(F)F)c(Br)cn2)C1=O (stereo not drawn) [AI2] | 4
